We go through two compounds from patent publication US20220204510A1, “2,3-DIHYDRO-1H-PYRROLIZINE-7-FORMAMIDE DERIVATIVE AND APPLICATION THEREOF” (CHIA TAI TIANQING PHARMACEUTICAL GROUP CO., LTD., priority 2018, published 2022).

Data set [1] relates to HBV. The data set can be described thus: qPCR test in the HBV in vitro test (HBV DNA in HepG2.2.15 cells). Conditions: Hepatitis B virus, 192 h, HBV DNA in HepG2.2.15 culture medium, day 8, read-out: Half maximal inhibitory concentration (EC50) of HBV. Format: cell-based. The method, then:
To evaluate the inhibitory effect of the compound on HBV by detecting content of HBV DNA in HepG2.2.15 cells in a real-time qPCR test, with EC50 of the compound as an indicator.
3.1. HepG2.2.15 cells (4×10^4 cells/well) were inoculated into a 96-well plate and cultured at 37° C. in 5% CO2 overnight. 3.2. On day 2, the compound was 3-fold diluted in gradient for a total of 8 dilution gradients. The compound at different concentrations was added into the culture wells in duplicate. The final concentration of DMSO in the culture medium was 1%. 1 μM GLS4 was used as a 100% inhibition control (the structure of GLS4 disclosed in WO2008154817A1 is as follows:
1% DMSO was used as a 0% inhibition control. 3.3. On day 5, the culture medium was replaced with a fresh culture medium containing the compound. 3.4. On day 8, the culture medium in the culture wells was collected, and the high-throughput DNA purification kit (Qiagen-51162) was used to extract DNA. For specific steps, refer to the product manual.
3.6. Each well of the 96-well PCR plate was added with 15 μL of the reaction mixture, and then with 10 μL of sample DNA or HBV DNA standard. 3.7. The reaction conditions for PCR: heating at 95° C. for 10 min, degeneration at 95° C. for 15 s, and extension at 60° C. for 1 min, with a total of 40 cycles.
3.8.1. Calculation of the inhibition percentage: % Inh.=[1−(DNA copy number in the sample−DNA copy number in 1 μM GLS4)/(DNA copy number in the DMSO control−DNA copy number in 1 μM GLS4)]×100. 3.8.2. Calculation of EC50: half maximal inhibitory concentration (EC50) of the compound for HBV was calculated using GraphPad Prism software. 3.8.3.
On the technique in general: Real-time PCR tracks product formation cycle by cycle.

The target of data set [2] is T1, CYP1A2 (Homo sapiens, UniProt P05177).
T1 construct: from tissue; host or cells: human liver microsomes
T1 sequence (P05177 1-516): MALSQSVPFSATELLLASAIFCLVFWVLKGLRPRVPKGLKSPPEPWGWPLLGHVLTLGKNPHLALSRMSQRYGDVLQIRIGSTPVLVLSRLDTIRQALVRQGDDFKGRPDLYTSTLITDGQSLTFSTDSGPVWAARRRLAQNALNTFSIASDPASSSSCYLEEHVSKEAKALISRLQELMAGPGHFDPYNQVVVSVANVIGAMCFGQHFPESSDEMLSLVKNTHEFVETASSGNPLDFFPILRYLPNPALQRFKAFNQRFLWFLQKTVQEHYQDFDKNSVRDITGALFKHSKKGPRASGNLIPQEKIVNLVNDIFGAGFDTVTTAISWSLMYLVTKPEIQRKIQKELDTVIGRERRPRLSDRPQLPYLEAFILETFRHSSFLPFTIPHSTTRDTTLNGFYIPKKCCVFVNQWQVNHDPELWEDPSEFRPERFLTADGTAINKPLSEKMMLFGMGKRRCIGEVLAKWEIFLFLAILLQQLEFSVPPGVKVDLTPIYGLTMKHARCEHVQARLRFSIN
The data set can be described thus: Inhibition of human liver microsomal cytochrome P450 isoenzymes. Format: in vitro ADME. Conditions: human liver microsomes. The method, then: (§1) Experimental objective: to determine the inhibitory effect of the test compound on the activity of human liver microsomal cytochrome P450 isoenzymes (CYP1A2, CYP2C9, CYP2C19, CYP2D6 and CYP3A4). Experimental procedures: first, the test compound (10 mM) was diluted in gradient to prepare working solutions (100× final concentration) at concentrations of: 5, 1.5, 0.5, 0.15, 0.05, 0.015, and 0.005 mM, and working solutions of positive inhibitors for P450 isoenzymes (CYP1A2, CYP2C9, CYP2C19, CYP2D6, and CYP3A4) and the specific substrate mixtures thereof (5 in 1) were prepared simultaneously; human liver microsomes frozen in a−80° C. refrigerator were thawed on ice, and after all thawed, the human liver microsomes were diluted with PB to prepare a working solution at a specific concentration (0.253 mg/mL); 20 μL of the substrate mixture (20 μL of PB was added into the blank well) and 158 μL of the working solution of human liver microsomes were added into the reaction plate which was then placed on ice for use; then 2 μL of the test compound at each concentration (N=1) and a specific inhibitor (N=2) were added into the corresponding well, and the group without the inhibitor (test compound or the positive inhibitor) was added with a corresponding organic solvent as a control sample (the test compound control sample was 1:1 DMSO:MeOH; the positive control sample was 1:9 DMSO:MeOH); after pre-incubation under a 37° C. water bath for 10 min, 20 μL of a coenzyme factor (NADPH) solution was added into the reaction plate and incubated under a 37° C. water bath for 10 min, 400 μL of a cold acetonitrile solution (the internal standard was 200 ng/mL Tolbutamide and Labetalol) was added to terminate the reaction, and the reaction plate was placed on a shaker and shaken for 10 min; after centrifugation at 4,000 rpm for 20 min, 200 μL of the supernatant was collected and added to 100 μL of water to dilute the sample, and, finally, the plate was sealed, oscillated shaken evenly, and subjected to LC/MS/MS detection.
In general terms: Liver microsomes are a subcellular fraction often used to study metabolism.

Data set [3] addresses T2, CYP2C19 (Homo sapiens, UniProt P33261).
T2 construct: from tissue; host or cells: human liver microsomes
The data set is described as above. In kind it is in vitro ADME. To be noted: human liver microsomes. The method, then: as §1

The target of data set [4] is T3, CYP2C9 (Homo sapiens, UniProt P11712).
T3 construct: from tissue; host or cells: human liver microsomes
T3 sequence (P11712 whole entry): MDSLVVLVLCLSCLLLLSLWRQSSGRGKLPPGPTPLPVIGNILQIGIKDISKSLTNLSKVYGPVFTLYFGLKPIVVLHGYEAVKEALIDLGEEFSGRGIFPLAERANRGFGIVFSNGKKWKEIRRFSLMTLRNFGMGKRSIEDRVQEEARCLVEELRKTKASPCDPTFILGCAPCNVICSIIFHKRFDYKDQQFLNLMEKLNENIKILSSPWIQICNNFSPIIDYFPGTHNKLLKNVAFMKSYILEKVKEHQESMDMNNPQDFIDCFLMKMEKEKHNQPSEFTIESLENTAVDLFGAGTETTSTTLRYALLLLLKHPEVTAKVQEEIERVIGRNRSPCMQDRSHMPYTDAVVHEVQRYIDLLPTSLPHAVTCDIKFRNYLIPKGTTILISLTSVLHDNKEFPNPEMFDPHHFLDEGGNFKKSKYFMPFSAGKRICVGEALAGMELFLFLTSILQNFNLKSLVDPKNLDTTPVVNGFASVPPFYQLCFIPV
The description is as above. Format: in vitro ADME. Conditions: human liver microsomes. The method, then:
as §1

Data set [5] concerns the target T4, CYP2D6 (Homo sapiens, UniProt P10635).
T4 construct: from tissue; host or cells: human liver microsomes
Described as above. To be noted: human liver microsomes. In kind it is in vitro ADME. The method, then: as §1

Data set [6] has as its target T5, CYP3A4 (Homo sapiens, UniProt P08684).
T5 construct: from tissue; host or cells: human liver microsomes
Described as above. In kind it is in vitro ADME. To be noted: human liver microsomes. The method, then:
as §1

Data set [7] can be described thus: Metabolic stability in liver microsomes. Format: in vitro ADME. Conditions: mouse, CD-1 mice liver microsomes. The method, then: (§2) Experimental objective: to evaluate the metabolic stability of the test compound in CD-1 mice and human liver microsomes
(§3) Experimental procedures: first, the test compound (10 mM) was subjected to a two-step dilution, where the compound was diluted to an intermediate concentration of 100 μM with 100% methanol, and the working solution was diluted to 10 μM with a potassium phosphate buffer; eight 96-well incubation plates were prepared, and named T0, T5, T10, T20, T30, T60, Blank and NCF60, respectively; the reaction time points corresponding to the first 6 incubation plates were 0, 5, 10, 20, 30 and 60 min, respectively; for the Blank plate, neither the test compound nor a control compound was added, and for the NCF60 plate, potassium phosphate buffer was used in an incubation of 60 min in place of a NADPH regeneration system solution; 10 μL of the test compound working solution and 80 μL of the microsome working solution (liver microsome protein concentration was 0.625 mg/mL) were added to the T0, T5, T10, T20, T30, T60 and NCF60 plates, while only the microsome working solution was added to the Blank plate, and all the incubation plates were then placed in a 37° C. water bath for pre-incubation for about 10 min; after the pre-incubation, 10 μL of a NADPH regeneration system working solution was added into each sample well of all the plates except the NCF60 plate and T0 plate to start the reaction, and 10 μL of potassium phosphate buffer was added to each well of the NCF60 plate; therefore, in the test compound or control compound samples, the final reaction concentrations of the compound, testosterone, diclofenac and propafenone were 1 μM, the concentration of the liver microsomes was 0.5 mg/mL, and the final concentrations of DMSO and acetonitrile in the reaction system were 0.01% (v/v) and 0.99% (v/v), respectively; after incubation for an appropriate time (such as 5, 10, 20, 30, and 60 min), 300 μL of a stop solution (acetonitrile solution containing 100 ng/mL tolbutamide and 100 ng/mL labetalol) was added to each sample well to stop the reaction; 300 μL of the stop solution and then 10 μL of the NADPH working solution were added to the T0 plate, all the sample plates were shaken and centrifuged in a centrifuge (3220×g) for 20 min, and then 100 μL of supernatant was taken from each well and diluted with 300 μL of pure water for liquid chromatography-tandem mass spectrometry analysis.

The nature of data set [8]: Metabolic stability in liver microsomes. Format: in vitro ADME, human. The method, then: as §2, §3

Broadly, the IC50 is the midpoint of a concentration-inhibition curve. A lower IC50 goes with higher potency. In general, CLint scaled refers to the capacity of the preparation to metabolise the compound, expressed as a volume cleared per time. A higher CLint scaled goes with rapid turnover. By half-life is commonly meant the time needed for the level to fall by half in the phase considered. A low value points to fast loss.

Where two headings read alike, the source gives them in different places.

T2 sequence (P33261 whole entry): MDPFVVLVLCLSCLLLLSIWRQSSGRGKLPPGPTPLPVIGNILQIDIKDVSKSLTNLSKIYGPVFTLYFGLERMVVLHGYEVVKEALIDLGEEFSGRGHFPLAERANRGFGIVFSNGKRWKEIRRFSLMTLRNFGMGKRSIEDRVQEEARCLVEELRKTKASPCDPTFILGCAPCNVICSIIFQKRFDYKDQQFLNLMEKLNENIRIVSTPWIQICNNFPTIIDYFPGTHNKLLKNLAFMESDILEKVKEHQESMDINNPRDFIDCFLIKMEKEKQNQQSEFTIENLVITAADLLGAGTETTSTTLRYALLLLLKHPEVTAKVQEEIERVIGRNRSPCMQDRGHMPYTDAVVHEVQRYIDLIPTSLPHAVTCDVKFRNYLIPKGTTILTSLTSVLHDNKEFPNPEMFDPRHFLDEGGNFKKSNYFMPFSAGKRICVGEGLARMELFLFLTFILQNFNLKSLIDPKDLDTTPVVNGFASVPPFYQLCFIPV
T5 sequence (P08684 whole entry): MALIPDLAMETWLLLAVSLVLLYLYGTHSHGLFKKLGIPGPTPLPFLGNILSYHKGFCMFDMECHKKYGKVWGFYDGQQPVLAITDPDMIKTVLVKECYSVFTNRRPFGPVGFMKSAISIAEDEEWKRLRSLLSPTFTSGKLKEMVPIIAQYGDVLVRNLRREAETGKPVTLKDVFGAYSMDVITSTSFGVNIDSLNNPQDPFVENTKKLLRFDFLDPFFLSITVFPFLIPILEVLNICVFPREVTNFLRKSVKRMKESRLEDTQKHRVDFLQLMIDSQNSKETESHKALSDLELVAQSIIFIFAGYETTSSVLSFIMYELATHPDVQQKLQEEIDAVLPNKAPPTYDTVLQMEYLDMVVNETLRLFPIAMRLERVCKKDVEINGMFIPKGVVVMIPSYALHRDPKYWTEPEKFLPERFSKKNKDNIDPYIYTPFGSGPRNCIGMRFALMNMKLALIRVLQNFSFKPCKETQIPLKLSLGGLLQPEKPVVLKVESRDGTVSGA
T4 sequence (P10635 whole entry): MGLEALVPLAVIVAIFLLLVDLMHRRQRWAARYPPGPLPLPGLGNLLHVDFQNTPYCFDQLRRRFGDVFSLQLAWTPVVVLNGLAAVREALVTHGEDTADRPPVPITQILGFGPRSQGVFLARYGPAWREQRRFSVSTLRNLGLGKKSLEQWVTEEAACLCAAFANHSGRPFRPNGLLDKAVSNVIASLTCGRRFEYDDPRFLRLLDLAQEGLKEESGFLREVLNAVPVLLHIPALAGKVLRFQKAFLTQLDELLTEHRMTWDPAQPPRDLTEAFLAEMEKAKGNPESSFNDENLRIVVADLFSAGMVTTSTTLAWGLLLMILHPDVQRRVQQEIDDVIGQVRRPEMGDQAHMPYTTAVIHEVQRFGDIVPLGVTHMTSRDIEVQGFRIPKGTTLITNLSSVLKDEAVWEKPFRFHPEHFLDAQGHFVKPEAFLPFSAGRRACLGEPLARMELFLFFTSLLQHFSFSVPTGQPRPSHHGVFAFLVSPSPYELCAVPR

Regarding `CC1(NC(=O)C(=O)c2c(Cl)c(C(=O)Nc3ccc(F)c(F)c3)c3n2CCC3)CCOCC1` [Compound 2], the EC50 in data set [1] was determined as 0.003 µM. Besides, the IC50 in data set [2], in data set [3], in data set [4], in data set [5] and in data set [6] was greater than 50 µM each time.

On to `C[C@]1(NC(=O)C(=O)c2c(Cl)c(C(=O)Nc3ccc(F)c(F)c3)c3n2CCC3)CC[C@@H](CC(=O)O)CC1` [Compound 17], for which, in data set [1], the EC50 is 0.007 µM. For the same compound, the IC50 in data set [2], in data set [3], in data set [4], in data set [5] and in data set [6] was greater than 50 µM each time. The CLint scaled at 1 μM in data set [7] was less than 38 mL/min/kg; in data set [8] (human liver microsomes), less than 8.6 mL/min/kg. Besides, the half-life at 1 μM was greater than 2.42 h in data set [7] (1 μM compound, 0.5 mg/mL) and greater than 2.42 h in data set [8] (Human liver microsomes, 1 μM compound, 0.5 mg/mL). Also, the microsomal CLint at 1 μM is less than 9.6 µL/min/mg in data set [7] (read-out: CLint(mic)) and less than 9.6 µL/min/mg in data set [8] (human liver microsomes, read-out: CLint(mic)).
